This is an account of results in PMC5299059 (Cell metabolism, 2017).

A word on the Kd: it is the concentration at which binding is half-saturated. The low end stands for higher affinity, the high end for lower affinity. By Ki is commonly meant the equilibrium dissociation constant of an inhibitor or competing ligand from its target. Read a high Ki as a looser hold on the target.

In assay [1] the target is T1, BRAF V600E (Homo sapiens, UniProt P15056, V600E). In words: […]-labeled acetoacetate radiometric binding to purified bead-bound BRAF.
Assay [2] addresses T2, BRAF V600D (Homo sapiens, UniProt P15056, V600D). Described as above.
Assay [3] concerns the target T3, BRAF V600R (Homo sapiens, UniProt P15056, V600R). The description is as above.
Assay [4] addresses T3, BRAF V600R. Briefly: […]-acetoacetate competition binding.
Assay [5] addresses T2, BRAF V600D. Briefly: […]-acetoacetate competition binding.
For assay [6], the target named is T1, BRAF V600E. Briefly: […]-acetoacetate competition binding.

T3 sequence (P15056 whole entry V600R): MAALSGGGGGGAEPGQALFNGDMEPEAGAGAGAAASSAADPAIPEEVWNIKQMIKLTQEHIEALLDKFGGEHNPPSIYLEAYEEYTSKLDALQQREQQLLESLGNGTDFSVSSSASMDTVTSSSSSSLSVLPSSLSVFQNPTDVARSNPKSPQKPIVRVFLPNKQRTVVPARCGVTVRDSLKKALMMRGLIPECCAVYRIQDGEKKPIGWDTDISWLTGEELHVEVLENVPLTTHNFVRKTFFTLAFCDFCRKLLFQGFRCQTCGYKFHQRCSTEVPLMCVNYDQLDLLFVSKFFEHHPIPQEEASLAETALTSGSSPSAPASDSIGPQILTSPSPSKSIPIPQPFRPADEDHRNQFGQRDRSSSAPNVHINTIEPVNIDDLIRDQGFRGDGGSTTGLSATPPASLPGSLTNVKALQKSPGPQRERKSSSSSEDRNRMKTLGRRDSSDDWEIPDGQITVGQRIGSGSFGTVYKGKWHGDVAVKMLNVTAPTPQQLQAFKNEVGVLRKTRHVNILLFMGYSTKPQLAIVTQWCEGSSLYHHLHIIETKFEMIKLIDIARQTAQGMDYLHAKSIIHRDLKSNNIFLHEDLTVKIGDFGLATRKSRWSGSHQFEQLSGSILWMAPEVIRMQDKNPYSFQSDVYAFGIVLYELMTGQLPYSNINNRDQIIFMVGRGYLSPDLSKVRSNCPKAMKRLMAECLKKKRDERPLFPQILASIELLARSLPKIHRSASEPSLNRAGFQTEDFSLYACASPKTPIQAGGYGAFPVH
T1 sequence (P15056 2-766 V600E): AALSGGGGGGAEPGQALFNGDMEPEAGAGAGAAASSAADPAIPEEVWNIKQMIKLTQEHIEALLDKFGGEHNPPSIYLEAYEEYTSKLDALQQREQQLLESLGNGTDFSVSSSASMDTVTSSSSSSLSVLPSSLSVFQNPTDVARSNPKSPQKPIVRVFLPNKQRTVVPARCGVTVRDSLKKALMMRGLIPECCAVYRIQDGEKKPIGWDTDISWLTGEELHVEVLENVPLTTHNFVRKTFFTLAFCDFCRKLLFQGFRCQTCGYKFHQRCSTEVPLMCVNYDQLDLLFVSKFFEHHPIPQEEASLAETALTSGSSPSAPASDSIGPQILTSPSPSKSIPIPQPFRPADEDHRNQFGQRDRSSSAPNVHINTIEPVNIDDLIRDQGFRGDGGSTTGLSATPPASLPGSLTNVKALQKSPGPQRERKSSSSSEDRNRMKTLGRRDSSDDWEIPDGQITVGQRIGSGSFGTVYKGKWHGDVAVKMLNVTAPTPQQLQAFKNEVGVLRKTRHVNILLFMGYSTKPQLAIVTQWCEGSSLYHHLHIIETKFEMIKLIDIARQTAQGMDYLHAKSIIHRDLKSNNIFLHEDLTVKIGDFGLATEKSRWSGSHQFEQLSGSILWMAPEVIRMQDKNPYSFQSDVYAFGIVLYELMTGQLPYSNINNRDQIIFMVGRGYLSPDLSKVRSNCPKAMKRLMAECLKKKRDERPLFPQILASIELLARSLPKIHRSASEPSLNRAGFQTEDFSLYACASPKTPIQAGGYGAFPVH
T2 sequence (P15056 whole entry V600D): as the sequence (P15056 whole entry V600R) above, with R600D counted along it

On to `CC(=O)CC(=O)O` [AA, acetoacetate], for which the results for the dissociation constant (Kd) at BRAF V600E [1], at BRAF V600D [2] and on BRAF V600R [3] were around 92 µM, around 93 µM and around 113 µM, respectively.

On to `CC(=O)C1C(=O)C=C(C)OC1=O` (stereo not drawn) [DHAA, dehydroacetic acid], for which the inhibition constant Ki was around 91 µM on BRAF V600R [4], around 88 µM at BRAF V600D [5] and around 88 µM on BRAF V600E [6].
